Tested on: 777334-354-R2-J4-PDC tumor spheroids with HUVEC/MSC, viability
Assay: Anticancer human tumor 777334-354-R2-J4-PDC patient-derived pancreatic adenocarcinoma cell line growth inhibition [GQUAD]
Conditions: for IC50: curve of first compound; for viability, T/C: stronger effect = lower value; active means viability on the fitted dose curve at most 10% of control; inactive means the rest
Procedure, shortened: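 Viability of tumor cells grown as complex spheroids with endothelial and stromal cells, exposed to drug combinations. Top concentration at or near clinical Cmax (else 10 microM), diluted in half-log increments.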

[1] = second compound 0.0316 µM, first compound 0.0316 µM
[2] = second compound 0.0316 µM, first compound 0.1 µM
[3] = second compound 0.0316 µM, first compound 0.316 µM
[4] = second compound 0.0316 µM, first compound 1 µM
[5] = second compound 0.0316 µM, first compound 3.16 µM
[6] = second compound 0.0316 µM, first compound 10 µM
[7] = second compound 0.1 µM, first compound 0.0316 µM
[8] = second compound 0.1 µM, first compound 0.1 µM
[9] = second compound 0.1 µM, first compound 0.316 µM
[10] = second compound 0.1 µM, first compound 1 µM
[11] = second compound 0.1 µM, first compound 3.16 µM
[12] = second compound 0.1 µM, first compound 10 µM
[13] = second compound 0.316 µM, first compound 0.0316 µM
[14] = second compound 0.316 µM, first compound 0.1 µM
[15] = second compound 0.316 µM, first compound 0.316 µM
[16] = second compound 0.316 µM, first compound 1 µM
[17] = second compound 0.316 µM, first compound 3.16 µM
[18] = second compound 0.316 µM, first compound 10 µM
[19] = second compound 1 µM, first compound 0.0316 µM
[20] = second compound 1 µM, first compound 0.1 µM
[21] = second compound 1 µM, first compound 0.316 µM
[22] = second compound 1 µM, first compound 1 µM
[23] = second compound 1 µM, first compound 3.16 µM
[24] = second compound 1 µM, first compound 10 µM
[25] = second compound 3.16 µM, first compound 0.0316 µM
[26] = second compound 3.16 µM, first compound 0.1 µM
[27] = second compound 3.16 µM, first compound 0.316 µM
[28] = second compound 3.16 µM, first compound 1 µM
[29] = second compound 3.16 µM, first compound 3.16 µM
[30] = second compound 3.16 µM, first compound 10 µM
[31] = second compound 10 µM, first compound 0.0316 µM
[32] = second compound 10 µM, first compound 0.1 µM
[33] = second compound 10 µM, first compound 0.316 µM
[34] = second compound 10 µM, first compound 1 µM
[35] = second compound 10 µM, first compound 3.16 µM
[36] = second compound 10 µM, first compound 10 µM
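Further: spheroids exposed to compounds for 7 days before readout.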

Nc1ccn(C2OC(CO)C(O)C2(F)F)c(=O)n1 (stereo unspecified) + CN(C)c1ccc(Nc2c3ccc(NC(=O)CCN4CCCC4)cc3nc3cc(NC(=O)CCN4CCCC4)ccc23)cc1
0.326 µM: IC50 (second compound 0.316 µM)
0.557 µM: IC50 (second compound 0.0316 µM)
0.0779 µM: IC50 (second compound 10 µM)
inactive: viability, T/C [1] 80.7% | viability, T/C [2] 67.8% | viability, T/C [3] 54.4% | viability, T/C [4] 44.3% | viability, T/C [5] 37.5% | viability, T/C [6] 27.3% | viability, T/C [7] 80.5% | viability, T/C [8] 71.5% | viability, T/C [9] 51.5% | viability, T/C [10] 39.1% | viability, T/C [11] 32.6% | viability, T/C [12] 27.4% | viability, T/C [13] 68.5% | viability, T/C [14] 65.8% | viability, T/C [15] 45.4% | viability, T/C [16] 40.5% | viability, T/C [17] 33.2% | viability, T/C [18] 23.4% | viability, T/C [19] 76.2% | viability, T/C [20] 55.3% | viability, T/C [21] 42.2% | viability, T/C [22] 34.4% | viability, T/C [23] 30.1% | viability, T/C [24] 22.9% | viability, T/C [25] 67.4% | viability, T/C [26] 51.8% | viability, T/C [27] 43.5% | viability, T/C [28] 33.7% | viability, T/C [29] 32.4% | viability, T/C [30] 22.2% | viability, T/C [31] 59.5% | viability, T/C [32] 49.5% | viability, T/C [33] 33.9% | viability, T/C [34] 30.5% | viability, T/C [35] 30.3% | viability, T/C [36] 18.5%
0.402 µM: IC50 (second compound 0.1 µM)
0.171 µM: IC50 (second compound 1 µM)
0.15 µM: IC50 (second compound 3.16 µM)

COc1ncnc(C2CC2)c1-c1ncc2cnn(Cc3ccc(-c4nc(C(F)(F)F)cn4C(C)C)cc3)c2n1 + CN(C)c1ccc(Nc2c3ccc(NC(=O)CCN4CCCC4)cc3nc3cc(NC(=O)CCN4CCCC4)ccc23)cc1
inactive: viability, T/C [1] 103% | viability, T/C [2] 94.8% | viability, T/C [3] 108% | viability, T/C [4] 95.7% | viability, T/C [5] 105% | viability, T/C [6] 111% | viability, T/C [7] 104% | viability, T/C [8] 91.1% | viability, T/C [9] 94.4% | viability, T/C [10] 84.5% | viability, T/C [11] 100% | viability, T/C [12] 98.3% | viability, T/C [13] 97.7% | viability, T/C [14] 94.5% | viability, T/C [15] 94% | viability, T/C [16] 95% | viability, T/C [17] 109% | viability, T/C [18] 105% | viability, T/C [19] 96.2% | viability, T/C [20] 101% | viability, T/C [21] 94.5% | viability, T/C [22] 93.8% | viability, T/C [23] 106% | viability, T/C [24] 96.8% | viability, T/C [25] 84.1% | viability, T/C [26] 85.1% | viability, T/C [27] 92.6% | viability, T/C [28] 94.2% | viability, T/C [29] 97.2% | viability, T/C [30] 91.9% | viability, T/C [31] 81.2% | viability, T/C [32] 73.5% | viability, T/C [33] 80.1% | viability, T/C [34] 75.6% | viability, T/C [35] 70.6% | viability, T/C [36] 58.4%
> 10 µM: IC50 (second compound 0.0316 µM) | IC50 (second compound 0.1 µM) | IC50 (second compound 0.316 µM) | IC50 (second compound 1 µM) | IC50 (second compound 3.16 µM) | IC50 (second compound 10 µM)

C=CC(=O)N1CCN(c2nc(=O)n(-c3c(C)ccnc3C(C)C)c3nc(-c4c(O)cccc4F)c(F)cc23)C(C)C1 (stereo unspecified) + CN(C)c1ccc(Nc2c3ccc(NC(=O)CCN4CCCC4)cc3nc3cc(NC(=O)CCN4CCCC4)ccc23)cc1
inactive: viability, T/C [1] 102% | viability, T/C [2] 97% | viability, T/C [3] 115% | viability, T/C [4] 100% | viability, T/C [5] 116% | viability, T/C [6] 118% | viability, T/C [7] 89.5% | viability, T/C [8] 95.1% | viability, T/C [9] 104% | viability, T/C [10] 128% | viability, T/C [11] 120% | viability, T/C [12] 107% | viability, T/C [13] 98.2% | viability, T/C [14] 109% | viability, T/C [15] 103% | viability, T/C [16] 113% | viability, T/C [17] 106% | viability, T/C [18] 109% | viability, T/C [19] 92.8% | viability, T/C [20] 86.7% | viability, T/C [21] 94.2% | viability, T/C [22] 105% | viability, T/C [23] 115% | viability, T/C [24] 97.7% | viability, T/C [25] 84.6% | viability, T/C [26] 87.2% | viability, T/C [27] 90.5% | viability, T/C [28] 107% | viability, T/C [29] 112% | viability, T/C [30] 95% | viability, T/C [31] 76.7% | viability, T/C [32] 76.3% | viability, T/C [33] 84% | viability, T/C [34] 90.5% | viability, T/C [35] 99.5% | viability, T/C [36] 75.5%
> 10 µM: IC50 (second compound 0.0316 µM) | IC50 (second compound 0.1 µM) | IC50 (second compound 0.316 µM) | IC50 (second compound 1 µM) | IC50 (second compound 3.16 µM) | IC50 (second compound 10 µM)

— PubChem BioAssay AID2060499 (Molecular Pharmacology Branch, DTP, NCI, 2025)
